Laboratory results: US5635479A, “Treatment of gynecological malignancies with biologically active peptides” (Magainin Pharmaceuticals Inc., priority 1995, dated 1997)
Square brackets hold non-standard residues; d marks the D form. Ends that are not written are not given here. Peptide text beside a SMILES is read from it. * marks the point of attachment. Octanoyl = CCCCCCCC(=O)*

System: murine Spontaneous Ovarian Teratoma cells (SOT cells)
Assay: Survival and ascites accumulation of mice injected with Spontaneous Ovarian Teratoma cells
Format: in vivo
Conditions: for delay of accumulation of ascites fluid (body weight data): Example 1, FIG. 1, untreated mice began to accumulate fluid 5 to 7 days after implantation; for increase in lifespan: Example 1, FIG. 2, median day of death as endpoint; for accumulation of ascites fluid (body weight data) vs control group: Example 3, FIG. 4, peptides 20 mg/kg at 2 days, or 2 and 5 days, adriamycin 5 mg/kg on day 2 only; for survival time and survivors vs control group: Example 3, FIG. 3, 20 mg/kg at 2 days, or at 2 days and 5 days after SOT cells; for ILS / Median Survival Time: Table I, i.p. days 2 and 5 after SOT cells
Experimental: Groups of mice, with six mice in each group, were injected with murine Spontaneous Ovarian Teratoma cells (SOT cells). At day 2, or at day 2 and day 5 after injection, the mice were injected with a saline solution, 5 mg/kg adriamycin (day 2 only), with 22 mg/kg of a peptide having the structure (SEQ ID NO:115)-NH2, or, in which each amino acid residue of (SEQ ID NO:115)-NH2 is a D-amino acid residue, such peptide hereinafter referred to as D-(SEQ ID NO:115)-NH2 or with 130 mg/kg of Cecropin A (SEQ ID NO:116)-NH2. The animals were monitored for survival time, the number of survivors in each group, the increase in lifespan, and the increase in body weight.
The treatment with adriamycin increased the lifespan by 76%.
Groups of mice, with 5 or 6 mice in each group, were injected with Spontaneous Ovarian Teratoma Cells. At 2 days and 5 days after the injection of the Spontaneous Ovarian Teratoma Cells (SOT cells), the groups of mice were injected intraperitoneally with a control saline solution, adriamycin, or with one of the following peptides:
The mice in each group were then monitored for median survival time (in days) and for increase in life span (ILS) vis a vis the control group. The median survival time is the day of death of the third mouse in each group. The results for the groups of mice given intraperitoneal injections of peptide at days 2 and 5 following injection of SOT cells are given in Table I below.
Groups of mice, with 6 mice in each group, were injected with Spontaneous Ovarian Teratoma Cells as described in Example 2. At 2 days, or at 2 days and 5 days after the injection of the SOT cells, the groups of mice were injected with saline (control), adriamycin (5 mg/kg-on day 2 only), or with 20 mg/kg of (SEQ ID NO:115)-NH2 or D-(SEQ ID NO:115)-NH2. The mice were then monitored for survival time, as well as for body weight.

[1] = 22 mg/kg D-(SEQ ID NO:115)-NH2, 130 mg/kg (SEQ ID NO:116)-NH2, 5 mg/kg adriamycin
[2] = administered on day 2 only, 22 mg/kg D-(SEQ ID NO:115)-NH2, 130 mg/kg (SEQ ID NO:116)-NH2, 5 mg/kg adriamycin
[3] = administered on day 2 and day 5, 22 mg/kg D-(SEQ ID NO:115)-NH2, 130 mg/kg (SEQ ID NO:116)-NH2
[4] = dose 130 mg/kg/day, control value not given

COc1cccc2c1C(=O)c1c(O)c3c(c(O)c1C2=O)C[C@@](O)(C(=O)CO)C[C@@H]3O[C@H]1C[C@H](N)[C@H](O)[C@H](C)O1 [adriamycin, reference compound]
delay of accumulation of ascites fluid (body weight data) [1]: at least 20 days
increase in lifespan [2]: 76%
accumulation of ascites fluid (body weight data) vs control group: delayed and was also significantly less

D-(SEQ ID NO:115)-NH2: (SEQ ID NO:115)-NH2 in which each amino acid residue is a D-amino acid residue (G[dI]G[dK][dF][dL][dK][dK][dA][dK][dK][dF][dA][dK][dA][dF][dV][dK][dI][dI][dN][dN]-NH2; N-terminus assumed; SMILES CC[C@@H](C)[C@@H](NC(=O)CN)C(=O)NCC(=O)N[C@H](CCCCN)C(=O)N[C@H](Cc1ccccc1)C(=O)N[C@H](CC(C)C)C(=O)N[C@H](CCCCN)C(=O)N[C@H](CCCCN)C(=O)N[C@H](C)C(=O)N[C@H](CCCCN)C(=O)N[C@H](CCCCN)C(=O)N[C@H](Cc1ccccc1)C(=O)N[C@H](C)C(=O)N[C@H](CCCCN)C(=O)N[C@H](C)C(=O)N[C@H](Cc1ccccc1)C(=O)N[C@@H](C(=O)N[C@H](CCCCN)C(=O)N[C@@H](C(=O)N[C@@H](C(=O)N[C@H](CC(N)=O)C(=O)N[C@H](CC(N)=O)C(N)=O)[C@H](C)CC)[C@H](C)CC)C(C)C)
delay of accumulation of ascites fluid (body weight data) [1]: at least 20 days
increase in lifespan [3]: 144%
increase in lifespan [2]: 115%
survival time and survivors vs control group: significantly greater survival times and had more survivors
accumulation of ascites fluid (body weight data) vs control group: delayed and was also significantly less
ILS (dose 22 mg/kg/day, controls 17): 144%
Median Survival Time (dose 22 mg/kg/day, controls 17): 41.5 days
ILS (dose 22 mg/kg/day, controls 21): 52%
Median Survival Time (dose 22 mg/kg/day, controls 21): 32 days

CCCCCCCC(=O)N[C@@H](CCCCN)C(=O)N[C@H](C(=O)N[C@@H](C)C(=O)NCC(=O)N[C@@H](CCCCN)C(=O)N[C@H](C(=O)N[C@@H](C)C(=O)N[C@@H](CCCCN)C(=O)N[C@H](C(=O)N[C@@H](C)C(=O)NCC(=O)N[C@@H](CCCCN)C(=O)N[C@H](C(=O)N[C@@H](C)C(=O)N[C@@H](CCCCN)C(=O)N[C@H](C(=O)N[C@@H](C)C(=O)NCC(=O)N[C@@H](CCCCN)C(=O)N[C@H](C(=O)N[C@@H](C)C(N)=O)[C@@H](C)CC)[C@@H](C)CC)[C@@H](C)CC)[C@@H](C)CC)[C@@H](C)CC)[C@@H](C)CC [Oct-(SEQ ID NO:27)-NH2] (Octanoyl-KIAGKIAKIAGKIAKIAGKIA-NH2)
ILS (dose 20 mg/kg/day, controls 21): 100%
Median Survival Time (dose 20 mg/kg/day, controls 21): 42 days

D-(SEQ ID NO:117)-NH2: D-form of (SEQ ID NO:117)-NH2 (G[dI]G[dK][dF][dL][dK][dS][dA][dK][dK][dF]G[dK][dA][dF][dV][dK][dI][dL][dN][dS]-NH2; N-terminus assumed; SMILES CC[C@@H](C)[C@@H](NC(=O)CN)C(=O)NCC(=O)N[C@H](CCCCN)C(=O)N[C@H](Cc1ccccc1)C(=O)N[C@H](CC(C)C)C(=O)N[C@H](CCCCN)C(=O)N[C@H](CO)C(=O)N[C@H](C)C(=O)N[C@H](CCCCN)C(=O)N[C@H](CCCCN)C(=O)N[C@H](Cc1ccccc1)C(=O)NCC(=O)N[C@H](CCCCN)C(=O)N[C@H](C)C(=O)N[C@H](Cc1ccccc1)C(=O)N[C@@H](C(=O)N[C@H](CCCCN)C(=O)N[C@@H](C(=O)N[C@H](CC(C)C)C(=O)N[C@H](CC(N)=O)C(=O)N[C@H](CO)C(N)=O)[C@H](C)CC)C(C)C)
ILS (dose 15 mg/kg/day, controls 21): 67%
Median Survival Time (dose 15 mg/kg/day, controls 21): 35 days

(SEQ ID NO:117)-NH2: peptide of the sequence listing, amide; sequence not printed in the text (GIGKFLKSAKKFGKAFVKILNS-NH2)
ILS (dose 45 mg/kg/day, controls 21): 83%
Median Survival Time (dose 45 mg/kg/day, controls 21): 38 days

(SEQ ID NO:116)-NH2: Cecropin A, amide (KWKLFKKIEKVGQNIRDGIIKAGPAVAVVGQATQIAK-NH2)
delay of accumulation of ascites fluid (body weight data) [1]: at least 20 days
increase in lifespan [3]: 112%
increase in lifespan [2]: 100%
ILS [4]: 112%
Median Survival Time [4]: 36 days

(SEQ ID NO:115)-NH2: peptide having the structure (SEQ ID NO:115)-NH2; sequence not printed in the text (GIGKFLKKAKKFAKAFVKIINN-NH2)
survival time and survivors vs control group: significantly greater survival times and had more survivors
accumulation of ascites fluid (body weight data) vs control group: delayed and was also significantly less
ILS (dose 20 mg/kg/day, controls 21): 100%
Median Survival Time (dose 20 mg/kg/day, controls 21): 42 days
ILS (dose 22 mg/kg/day, controls 21): 81%
Median Survival Time (dose 22 mg/kg/day, controls 21): 38 days
